Consider 9 molecules from patent US8426408B2, “Pyrimidine inhibitors of kinases” (AbbVie Inc., priority 2009, dated 2013).

Assay [1] addresses T1, KDR (Homo sapiens, UniProt P35968). Put plainly: KDR cellular assay (KDR receptor phosphorylation ELISA). It is filed as cell-based. Also noted: expressed in transfected cells; host or cells: 3T3 (embryonic mouse) cells. As to conditions: KDR transfected 3T3 (embryonic mouse) cells, VEGF stimulated; read-out: IC50 inhibition of KDR phosphorylation. As for the experimental part: The ability of compounds to inhibit KDR receptor phosphorylation in cells was measured by ELISA following the protocol outlined below.
KDR transfected 3T3 (embryonic mouse) cells added to 96-well tissue culture plates at 20,000 cells/well.
Plates were covered and placed in a 37° C. humidified incubator with 5% CO2 overnight, to allow cells to adhere.
Coating solution was prepared: 500 l/vial PBS was added to 2 vials of anti-KDR antibody, then 1 ml solubilized anti-KDR antibody into 29.0 ml bicarbonate buffer. Coating solution was added to all wells at 150 µl/well (final amount anti-KDR=1 µg/well) and placed at 4° C. overnight.
Blocking solution (2.1 g dry milk+42 ml PBS=5% milk in PBS) was placed on a stir plate for 30 min.
Assay plates were washed twice with PBST, and 200 µl/well blocking solution was added to all wells. Assay plates were covered with plate sealers and placed in a 37° C. microplate chamber until just before cell lysate transfer.
Compound stocks were thawed or prepared in DMSO as 5 mM stocks.
Dilution medium (DM, 1% DMSO in DMEM) and compounds were diluted by half-log increments for concentration response analysis.
Conditioned media was dumped from the tissue culture plates, and plates were blotted dry.
Standard solution in DM, compound dilutions in DM, or DM (for high control, negative control, and reference wells) were added to the tissue culture plates, 25 µl/well. Each pair of tissue culture plates was prepared with the same compounds, solutions, and layout; and will be combined later; Tissue culture plates were covered and placed in the 37° C. microplate chamber for 20 min.
VEGF solution was prepared: 110 l VEGF stock+10.89 ml DM=100 ng/ml VEGF
VEGF solution or DM (for reference wells) was added to the tissue culture plates, 25 μl/well.
Tissue culture plates were covered and placed in the 37° C. microplate chamber for 10 min.
RIPA buffer was prepared (240 l NaVO3 stock+240 l PIC stock+24 l NaF stock+23.496 ml RIPA base) and added to the tissue culture plates, 50 µl/well.
Tissue culture plates were covered and placed on a Labline plate shaker for 10 min (speed about 5).
Assay plates were washed twice with PBST.
Cell lysates from matching wells of each pair of tissue culture plates were combined to =200 µl/well, and were pipetted up and down to mix. Cell lysates were transferred to the assay plates using the same layouts, 170 µl/well.
Assay plates were covered with plate sealers and placed on a Labline plate shaker for 2 hr (speed about 5).
Assay plates were washed 5 times with PBST.
Biotin antibody solution was prepared (16 l biotin antibody stock+32 ml PBST=2000× dilution) and added to the assay plates, 150 µl/well.
Assay plates were covered with plate sealers and placed on a Labline plate shaker for 90 min
Streptavidin-HRP solution was prepared (16 l streptavidin-HRP stock+32 ml PBST=2000× dilution) and added to the assay plates, 150 µl/well.
Assay plates were covered with plate sealers and placed on a Labline plate shaker for 60 min
Substrate was added to the assay plates, 100 µl/well.
As assay plates developed, the plates were each monitored on a Molecular Devices Spectramax set to 650 nm, until the signal in the high control wells was around 0.6 OD and the signal in the negative control wells was around 0.1-0.15 OD.
Stop solution was added to the assay plates, 100 µl/well.
The plates were read on a Molecular Devices Spectramax set to 450 nm.
Data was calculated by Assay Explorer, using same-plate high control wells as 0% and reference standard wells as 100% inhibition of KDR phosphorylation. IC50 values were calculated by non-linear regression analysis of the concentration response data.
Target sequence in this assay (P35968 20-1356): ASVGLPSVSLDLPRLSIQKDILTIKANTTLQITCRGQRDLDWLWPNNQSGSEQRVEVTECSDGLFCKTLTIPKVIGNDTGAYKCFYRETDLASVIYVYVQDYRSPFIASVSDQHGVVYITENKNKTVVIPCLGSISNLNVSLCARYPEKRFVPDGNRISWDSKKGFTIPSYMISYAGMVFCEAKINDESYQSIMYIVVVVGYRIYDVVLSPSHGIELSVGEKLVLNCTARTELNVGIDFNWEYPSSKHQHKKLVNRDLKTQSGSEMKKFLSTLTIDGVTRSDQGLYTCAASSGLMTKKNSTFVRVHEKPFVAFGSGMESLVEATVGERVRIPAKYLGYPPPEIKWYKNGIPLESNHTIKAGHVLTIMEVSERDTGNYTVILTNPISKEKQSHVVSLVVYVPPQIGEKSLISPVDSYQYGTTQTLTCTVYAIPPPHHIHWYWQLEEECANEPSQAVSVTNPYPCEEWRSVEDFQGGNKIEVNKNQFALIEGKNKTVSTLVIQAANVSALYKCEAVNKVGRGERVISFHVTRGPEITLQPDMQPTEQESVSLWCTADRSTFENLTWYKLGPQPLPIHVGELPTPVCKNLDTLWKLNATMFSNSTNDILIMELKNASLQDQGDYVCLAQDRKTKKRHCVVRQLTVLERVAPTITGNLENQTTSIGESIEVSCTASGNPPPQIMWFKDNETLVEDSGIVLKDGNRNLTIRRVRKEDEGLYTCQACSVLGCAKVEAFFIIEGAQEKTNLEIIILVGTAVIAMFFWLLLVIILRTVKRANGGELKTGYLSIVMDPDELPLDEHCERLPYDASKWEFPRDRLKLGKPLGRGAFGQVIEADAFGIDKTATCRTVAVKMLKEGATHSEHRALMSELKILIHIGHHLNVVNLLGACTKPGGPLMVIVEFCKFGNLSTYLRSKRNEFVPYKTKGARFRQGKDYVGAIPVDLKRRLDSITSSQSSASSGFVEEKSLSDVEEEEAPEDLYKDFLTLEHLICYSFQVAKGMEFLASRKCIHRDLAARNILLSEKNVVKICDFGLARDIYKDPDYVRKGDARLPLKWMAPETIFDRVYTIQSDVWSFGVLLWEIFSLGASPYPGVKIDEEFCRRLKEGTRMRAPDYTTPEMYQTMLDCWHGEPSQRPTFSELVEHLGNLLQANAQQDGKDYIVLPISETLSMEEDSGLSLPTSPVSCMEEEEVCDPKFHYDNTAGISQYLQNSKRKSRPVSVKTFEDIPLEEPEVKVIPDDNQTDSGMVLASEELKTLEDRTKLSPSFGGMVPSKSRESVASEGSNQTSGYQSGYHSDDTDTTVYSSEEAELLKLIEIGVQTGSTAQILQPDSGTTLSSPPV

Assay [2] concerns the target T1, KDR. Put plainly: KDR HTRF in vitro kinase assay. It is filed as biochemical. Also noted: purified enzyme (His6-KDR 789-1354, MW 63 kD); His6 (N). As to conditions: 1 mM ATP; read-out: KDR enzyme inhibition data (Ki). The gist of the method: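 His6-KDR 789-1354 (7 ng/well) with 0.5 μM biotinylated peptide substrate and 1 mM ATP in HEPES pH 7.1, MgCl2/MnCl2, 60 min at room temperature. EDTA-quenched, detected by streptavidin-XL-665 plus Eu-kryptate anti-phosphotyrosine HTRF after 3 h; IC50 from 620/665 nm ratio.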
Target sequence in this assay (P35968 789-1354): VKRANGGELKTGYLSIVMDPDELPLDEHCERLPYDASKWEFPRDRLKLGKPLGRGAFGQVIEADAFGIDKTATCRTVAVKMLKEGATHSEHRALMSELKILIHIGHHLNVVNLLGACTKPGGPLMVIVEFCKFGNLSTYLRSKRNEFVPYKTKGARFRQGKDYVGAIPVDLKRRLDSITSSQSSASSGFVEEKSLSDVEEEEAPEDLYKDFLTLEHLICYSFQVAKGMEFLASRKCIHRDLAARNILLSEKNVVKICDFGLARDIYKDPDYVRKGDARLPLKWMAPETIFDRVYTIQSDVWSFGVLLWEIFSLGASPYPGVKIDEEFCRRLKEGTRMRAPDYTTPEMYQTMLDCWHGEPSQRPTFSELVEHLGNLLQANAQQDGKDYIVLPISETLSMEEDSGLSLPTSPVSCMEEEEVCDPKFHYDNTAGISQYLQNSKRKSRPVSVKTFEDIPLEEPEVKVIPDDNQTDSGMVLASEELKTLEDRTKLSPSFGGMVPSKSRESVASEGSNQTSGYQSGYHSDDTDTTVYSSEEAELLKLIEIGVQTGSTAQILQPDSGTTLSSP
(In general: TR-FRET usually uses a lanthanide donor and a delayed reading to cut background.)

For a further assay, the target named is T2, Aurora B (Homo sapiens, UniProt Q96GD4).
T2 construct: Active Aurora B enzyme (recombinant residues 1-344)
Put plainly: Aurora B enzyme inhibition (time-resolved fluorescence, histone H3 peptide). It counts as biochemical. The following applies: 1 mM ATP. The gist of the method:
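IC50s came from an exponential fit of inhibition against inhibitor concentration, with phosphorylation read as the 665/615 nm time-resolved fluorescence ratio after EDTA stop using Eu-anti-phospho-H3 and SA-APC. The 1 h reaction used Aurora B 1-344 plus GST-INCENP, biotin-histone H3 1-21 peptide and 1 mM ATP in pH 7.4 HEPES buffer.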

Another assay deals with T3, Aurora A (Homo sapiens, UniProt O14965).
T3 sequence (O14965 1-403): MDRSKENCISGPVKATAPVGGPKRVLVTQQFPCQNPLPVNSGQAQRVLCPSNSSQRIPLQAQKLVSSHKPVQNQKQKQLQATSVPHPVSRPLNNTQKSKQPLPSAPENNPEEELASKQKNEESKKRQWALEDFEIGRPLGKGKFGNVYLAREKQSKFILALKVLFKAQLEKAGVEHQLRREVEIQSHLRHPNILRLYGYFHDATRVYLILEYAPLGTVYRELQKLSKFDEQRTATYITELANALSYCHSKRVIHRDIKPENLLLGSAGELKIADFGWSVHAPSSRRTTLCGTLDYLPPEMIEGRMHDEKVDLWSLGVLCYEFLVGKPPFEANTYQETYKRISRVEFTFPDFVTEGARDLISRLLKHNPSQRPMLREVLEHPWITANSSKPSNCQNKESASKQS
Put plainly: Aurora A enzyme inhibition (time-resolved fluorescence, STK substrate-2). It counts as biochemical. The following applies: 1 mM ATP. Put shortly: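 Phosphorylation of biotinylated STK substrate-2 at 1 mM ATP, 1 h, Hepes buffer pH 7.4 (MgCl2, sodium orthovanadate, Triton X-100). After EDTA quench, 665/615 nm time-resolved fluorescence ratio read via europium anti-phospho antibody and SA-XL665; IC50 from exponential fit versus inhibitor concentration.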

T2 sequence (Q96GD4 whole entry, the tested form may be a part): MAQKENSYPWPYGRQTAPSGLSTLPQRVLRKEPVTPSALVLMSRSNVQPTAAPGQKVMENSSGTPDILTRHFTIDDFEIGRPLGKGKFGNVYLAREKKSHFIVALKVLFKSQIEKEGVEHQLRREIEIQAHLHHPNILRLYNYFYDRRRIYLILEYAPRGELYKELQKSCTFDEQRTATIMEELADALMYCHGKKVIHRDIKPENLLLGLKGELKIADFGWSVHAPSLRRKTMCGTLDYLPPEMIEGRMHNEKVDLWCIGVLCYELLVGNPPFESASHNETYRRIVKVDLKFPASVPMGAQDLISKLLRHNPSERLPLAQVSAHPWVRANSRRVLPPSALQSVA
T2 sequence (Q9NQS7 826-918 partner limits assumed): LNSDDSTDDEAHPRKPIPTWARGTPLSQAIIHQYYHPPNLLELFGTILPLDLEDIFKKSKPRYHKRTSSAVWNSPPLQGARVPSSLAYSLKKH

For “5-chloro-N^2-(1H-indazol-5-yl)-N^2-{1-[(3R)-pyrrolidin-3-yl]-1H-pyrazol-4-yl}pyrimidine-2,4-diamine [Example 181]”, the IC50 on KDR [1] was 100 to 1000 nM. Besides, the Ki on KDR [2], at Aurora B and on Aurora A was under 100 nM in each case.
On to `Cn1cc(Nc2ncc(Cl)c(N[C@@H]3[C@H](C(N)=O)[C@H]4C=C[C@@H]3C4)n2)cn1.Cn1cc(Nc2ncc(Cl)c(N[C@H]3[C@@H](C(N)=O)[C@@H]4C=C[C@H]3C4)n2)cn1` (mixture of isomers) [Example 27, (1S,2S,3R,4R)-3-({5-chloro-2-[(1-methyl-1H-pyrazol-4-yl)amino]pyrimidin-4-yl}amino)bicyclo[2.2.1]hept-5-ene-2-carboxamide and (1R,2R,3S,4S)-3-({5-chloro-2-[(1-methyl-1H-pyrazol-4-yl)amino]pyrimidin-4-yl}amino)bicyclo[2.2.1]hept-5-ene-2-carboxamide], for which the IC50 at KDR [1] is under 100 nM. The Ki on KDR [2], on Aurora B and at Aurora A was under 100 nM in each case.
Take `Cn1cc(Nc2ncc(Br)c(N[C@@H]3[C@H](C(N)=O)[C@H]4C=C[C@@H]3C4)n2)cn1.Cn1cc(Nc2ncc(Br)c(N[C@H]3[C@@H](C(N)=O)[C@@H]4C=C[C@H]3C4)n2)cn1` (mixture of isomers) [Example 28, (1S,2S,3R,4R)-3-({5-bromo-2-[(1-methyl-1H-pyrazol-4-yl)amino]pyrimidin-4-yl}amino)bicyclo[2.2.1]hept-5-ene-2-carboxamide and (1R,2R,3S,4S)-3-({5-bromo-2-[(1-methyl-1H-pyrazol-4-yl)amino]pyrimidin-4-yl}amino)bicyclo[2.2.1]hept-5-ene-2-carboxamide]: at KDR [1], the IC50 is under 100 nM. Also, the Ki on KDR [2], at Aurora B and at Aurora A was under 100 nM each time.
Regarding `NC(=O)[C@@H]1[C@H](Nc2nc(Nc3cnn(CCO)c3)ncc2C(F)(F)F)[C@H]2C=C[C@@H]1C2.NC(=O)[C@H]1[C@@H](Nc2nc(Nc3cnn(CCO)c3)ncc2C(F)(F)F)[C@@H]2C=C[C@H]1C2` (mixture of isomers) [Example 29, (1S,2S,3R,4R)-3-{[2-{[1-(2-hydroxyethyl)-1H-pyrazol-4-yl]amino}-5-(trifluoromethyl)pyrimidin-4-yl]amino}bicyclo[2.2.1]hept-5-ene-2-carboxamide and (1R,2R,3S,4S)-3-{[2-{[1-(2-hydroxyethyl)-1H-pyrazol-4-yl]amino}-5-(trifluoromethyl)pyrimidin-4-yl]amino}bicyclo[2.2.1]hept-5-ene-2-carboxamide], the IC50 on KDR [1] is 100 to 1000 nM. Moreover, the Ki on KDR [2] is under 100 nM; at Aurora B it was 100 to 1000 nM; on Aurora A, under 100 nM.
In the case of `Cn1cc(Nc2ncc(C(N)=O)c(NC3C4C=CC(C4)C3C(N)=O)n2)cn1` (mixture of isomers) [Example 86, 4-{[(1S,2S,3R,4R)-3-carbamoylbicyclo[2.2.1]hept-5-ene-2-yl]amino}-2-[(1-methyl-1H-pyrazol-4-yl)amino]pyrimidine-5-carboxamide and 4-{[(1R,2R,3S,4S)-3-carbamoylbicyclo[2.2.1]hept-5-ene-2-yl]amino}-2-[(1-methyl-1H-pyrazol-4-yl)amino]pyrimidine-5-carboxamide], at KDR [1], the IC50 was 100 to 1000 nM. In addition, the Ki on KDR [2] is 100 to 1000 nM; on Aurora B, under 100 nM; at Aurora A, under 100 nM.
As for `CCn1cc(Nc2ncc(C(N)=O)c(NC3C4C=CC(C4)C3C(N)=O)n2)cn1` (mixture of isomers) [Example 87, 4-{[(1S,2S,3R,4R)-3-carbamoylbicyclo[2.2.1]hept-5-ene-2-yl]amino}-2-[(1-ethyl-1H-pyrazol-4-yl)amino]pyrimidine-5-carboxamide and 4-{[(1R,2R,3S,4S)-3-carbamoylbicyclo[2.2.1]hept-5-ene-2-yl]amino}-2-[(1-ethyl-1H-pyrazol-4-yl)amino]pyrimidine-5-carboxamide], the IC50 on KDR [1] was 100 to 1000 nM. Also, the Ki on KDR [2], on Aurora B and on Aurora A was under 100 nM each time.
In the case of `Cc1nc(Nc2cnn(C)c2)nc(N[C@@H]2[C@H](C(N)=O)[C@H]3C=C[C@@H]2C3)c1Cl.Cc1nc(Nc2cnn(C)c2)nc(N[C@H]2[C@@H](C(N)=O)[C@@H]3C=C[C@H]2C3)c1Cl` (mixture of isomers) [Example 125, (1S,2S,3R,4R)-3-({5-chloro-6-methyl-2-[(1-methyl-1H-pyrazol-4-yl)amino]pyrimidin-4-yl}amino)bicyclo[2.2.1]hept-5-ene-2-carboxamide and (1R,2R,3S,4S)-3-({5-chloro-6-methyl-2-[(1-methyl-1H-pyrazol-4-yl)amino]pyrimidin-4-yl}amino)bicyclo[2.2.1]hept-5-ene-2-carboxamide], the half-maximal inhibitory concentration (IC50) on KDR [1] is 100 to 1000 nM. The Ki is 100 to 1000 nM at KDR [2], under 100 nM at Aurora B and 100 to 1000 nM at Aurora A.
Consider `CCn1cc(Nc2ncc(Cl)c(Nc3ccc4[nH]ncc4c3)n2)cn1` [Example 176, 5-chloro-N^2-(1-ethyl-1H-pyrazol-4-yl)-N^4-(1H-indazol-5-yl)pyrimidine-2,4-diamine], for which the half-inhibitory concentration (IC50) at KDR [1] lay in the range of 100 to 1000 nM.
With “isopropyl{4-[(4-{[(1R,2R,3S,4S)-3-(aminocarbonyl)bicyclo[2.2.1]hept-5-ene-2-yl]amino}-5-fluoropyrimidin-2-yl)amino]-1H-pyrazol-1-yl}acetate and isopropyl{4-[(4-{[(1S,2S,3R,4R)-3-(aminocarbonyl)bicyclo[2.2.1]hept-5-ene-2-yl]amino}-5-fluoropyrimidin-2-yl)amino]-1H-pyrazol-1-yl}acetate [Example 6]”, the Ki at KDR [2], at Aurora B and on Aurora A was 100 to 1000 nM each time.

Broadly, the IC50 is the concentration that inhibits the measured activity by half. The term Ki denotes the equilibrium dissociation constant of an inhibitor or competing ligand from its target.
